Common to all, as to assay type: cell-based
Common to all, as to conditions: HEK-293T, HEK293T, normalized to % 5-HT stimulation, class symbols (Table 5)

One assay addresses T1, 5-HT2C receptor (Homo sapiens, UniProt P28335).
T1 construct: expressed in transfected cells; host or cells: HEK293T
T1 sequence (P28335 33-458): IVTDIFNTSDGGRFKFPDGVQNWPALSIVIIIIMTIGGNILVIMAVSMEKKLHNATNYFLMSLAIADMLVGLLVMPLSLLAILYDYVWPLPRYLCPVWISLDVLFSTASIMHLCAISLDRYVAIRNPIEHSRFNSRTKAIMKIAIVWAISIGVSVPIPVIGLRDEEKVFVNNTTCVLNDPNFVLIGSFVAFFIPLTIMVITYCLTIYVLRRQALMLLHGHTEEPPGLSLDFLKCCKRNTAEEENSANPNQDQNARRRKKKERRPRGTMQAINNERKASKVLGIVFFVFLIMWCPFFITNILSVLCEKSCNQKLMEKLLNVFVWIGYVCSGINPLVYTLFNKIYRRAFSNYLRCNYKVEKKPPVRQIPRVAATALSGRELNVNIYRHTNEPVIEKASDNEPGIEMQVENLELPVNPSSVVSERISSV
Put plainly: 5-HT2 receptor-mediated Gq activation, Gq/y1 dissociation by BRET, 5-HT2C. The text has this: (§1) To measure 5-HT2 receptor-mediated Gq activation via Gq/y1 dissociation as measured by Bioluminescence Resonance Energy Transfer (BRET) (McCorvy J D, Wacker D, Wang S, Agegnehu B, Liu J, Lansu K, Tribo A R, Olsen R H J, Che T, Jin J, Roth B L. Structural determinants of 5-HT2B receptor activation and biased agonism. Nat Struct Mo/Biol. 2018; 25(9): 787-96), HEK293T cells were sub-cultured in Dulbecco's Modified Eagle Medium (DMEM) supplemented with 10% dialyzed fetal bovine serum (FBS) and were co-transfected in a 1:1:1:1 ratio with Rluc8-fused human Gaq (Gaq-Rluc8), a GFP2-fused to the C-terminus of human Gy1(Gy1-GFP2), human G131, and 5-HT2 receptor using TransiT-2020. […] Substrate addition occurred 15 minutes before reading and utilized 10 μL of the Rluc substrate coelenterazine 400a for Gq dissociation BRET^2 (Prolume/Nanolight, 5 μM final concentration). Plates were read for luminescence at 400 nm and fluorescent GFP2 emission at 510 nm at 1 second per well using a Mithras LB940 multimode microplate reader (e.g. one provided by Berthold). The BRET ratios of fluorescence/luminescence were calculated per well and were plotted as a function of drug concentration using Graphpad Prism 8 (Graphpad Software Inc., San Diego, CA).

A further assay concerns the target T2, 5-HT2B receptor (Homo sapiens, UniProt P41595).
T2 construct: expressed in transfected cells; host or cells: HEK293T
Put plainly: 5-HT2 receptor-mediated Gq activation, Gq/y1 dissociation by BRET, 5-HT2B.
Description: as §1
In general terms: BRET reads energy transfer from a luciferase to a nearby fluorophore.

A further assay concerns the target T3, 5-HT2A receptor (Homo sapiens, UniProt P28223).
T3 construct: expressed in transfected cells; host or cells: HEK293T
Put plainly: 5-HT2 receptor-mediated Gq activation, Gq/y1 dissociation by BRET, 5-HT2A.
Description: as §1

T3 sequence (P28223 whole entry): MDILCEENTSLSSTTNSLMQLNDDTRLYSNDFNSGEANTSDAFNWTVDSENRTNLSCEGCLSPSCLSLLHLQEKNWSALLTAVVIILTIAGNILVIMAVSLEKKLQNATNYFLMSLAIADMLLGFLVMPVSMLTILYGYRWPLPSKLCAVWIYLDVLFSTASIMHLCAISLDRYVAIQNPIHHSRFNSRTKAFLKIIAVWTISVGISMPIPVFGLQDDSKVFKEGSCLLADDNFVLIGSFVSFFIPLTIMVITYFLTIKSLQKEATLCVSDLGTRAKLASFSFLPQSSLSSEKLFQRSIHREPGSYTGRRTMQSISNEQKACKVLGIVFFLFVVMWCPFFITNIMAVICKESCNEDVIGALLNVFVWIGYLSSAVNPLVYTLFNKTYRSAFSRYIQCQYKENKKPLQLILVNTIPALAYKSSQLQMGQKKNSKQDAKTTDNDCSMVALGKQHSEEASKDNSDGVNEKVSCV
T2 sequence (P41595 whole entry): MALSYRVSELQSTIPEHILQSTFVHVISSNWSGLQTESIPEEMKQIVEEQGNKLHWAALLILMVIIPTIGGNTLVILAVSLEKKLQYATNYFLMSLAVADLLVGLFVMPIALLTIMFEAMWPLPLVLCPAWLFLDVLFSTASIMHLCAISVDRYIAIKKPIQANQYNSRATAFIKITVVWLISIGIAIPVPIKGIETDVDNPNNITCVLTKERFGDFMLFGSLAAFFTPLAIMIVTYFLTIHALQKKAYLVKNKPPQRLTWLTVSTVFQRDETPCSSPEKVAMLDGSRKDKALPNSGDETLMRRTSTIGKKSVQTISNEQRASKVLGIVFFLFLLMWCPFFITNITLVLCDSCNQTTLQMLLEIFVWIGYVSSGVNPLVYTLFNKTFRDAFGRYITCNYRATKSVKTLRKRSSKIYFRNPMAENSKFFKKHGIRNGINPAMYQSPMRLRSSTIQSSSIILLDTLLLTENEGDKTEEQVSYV

Turning to `CNC[C@H]1C[C@@H]1c1cc(F)ccc1OC`, the maximal response (Emax) at 5-HT2C receptor, on 5-HT2B receptor and at 5-HT2A receptor was 50 to 80% in each case.
As for `CNCC1CC1c1cc(F)ccc1SC` (centres unmarked), the Emax on 5-HT2C receptor and at 5-HT2A receptor was 50 to 80% in each case.

The values are drawn from patent US20260355129A1, “5-HT2C AGONISTS FOR TREATING PRADER-WILLI SYNDROME (PWS), METABOLIC SYNDROMES, AND OTHER DISEASES AND DISORDERS” (Park City Bio, LLC, priority 2025, published 2026).
